Reference: US11472812B2, “Anti-cancer compounds targeting Ral GTPases and methods of using the same” (The Regents of the University of Colorado, a body corporate, priority 2014, dated 2022)
Residue numbers refer to the chain shown, from its start. Converted amounts (≈) assume the structure as drawn.

How the values were obtained:
RalA [1] = target: T1, RalA (Homo sapiens, UniProt P11233); assay: Ral activity pull-down assay with RalBP1 agarose beads in cells; assay type: cell-based; parameters: endogenous in cells; host or cells: H2122 and H358 human lung cancer cells; conditions: H2122 and H358 cells, 10 μM compound, 3 hrs
T1 sequence (P11233 1-206): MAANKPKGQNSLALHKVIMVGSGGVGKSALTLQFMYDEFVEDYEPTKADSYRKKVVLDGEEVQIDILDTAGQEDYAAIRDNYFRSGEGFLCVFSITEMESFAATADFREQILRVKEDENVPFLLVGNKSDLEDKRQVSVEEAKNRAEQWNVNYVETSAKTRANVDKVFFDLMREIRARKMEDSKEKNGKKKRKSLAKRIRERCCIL
Method: (§1) FIGS. 6A-6E show the cellular uptake of Ral inhibitors in vitro. H2122 human lung cancer cells were treated with 10 μM of RBC8 (FIG. 6A), BQU57 (FIG. 6B), BQU85 (FIG. 6C), and RBC5 (FIG. 6D). Cells were collected at different time points (1, 5, 15, 30 and 60 min), and drug concentrations in cells determined using LC/MS-MS methods (n=3 for each time point). […] Cells were grown under anchorage-independent conditions and treated with 10 μM compounds for 3 hours. Ral activity in cell lysates were then determined using the pull down assay with RalBP1 agarose beads. Data represent three independent experiments.
(§2) To confirm that Ral activity is inhibited in H2122 and H358 cells by drug treatment, we performed the Ral activity pull-down assay. Cells were treated with drug for 3 hrs, collected and Ral activity measured using the RalBP1 pull-down assay kit (Millipore #14-415). RBC8 and BQU57 but not RBC5 inhibited both RalA and RalB activity in both cell lines (FIG. 6E).

RalB [2] = target: T2, RalB (Homo sapiens, UniProt P11234); assay: as above; assay type: cell-based; parameters: endogenous in cells; host or cells: H2122 and H358 human lung cancer cells; conditions: H2122 and H358 cells, 10 μM compound, 3 hrs
T2 sequence (P11234 1-206): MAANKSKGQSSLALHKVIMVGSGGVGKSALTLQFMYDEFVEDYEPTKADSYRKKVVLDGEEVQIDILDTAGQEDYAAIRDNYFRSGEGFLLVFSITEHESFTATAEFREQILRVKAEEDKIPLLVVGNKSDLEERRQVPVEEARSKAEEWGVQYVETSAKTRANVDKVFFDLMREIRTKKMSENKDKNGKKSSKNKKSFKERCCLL
Method: as §1, §2

Ras = Ras activity pull-down in H2122 xenograft tumors; assay type: in vivo, human; conditions: BQU57 treated H2122 tumors, 3 h post-dose
Description: Activity assay kits for Ras (#BK008) and RhoA (#BK036) were obtained from Cytoskeleton (Denver, Colo.). We used an ELISA for Ral activity based on selective binding of active RalA-GTP to its effector protein RalBP1.
(§3) Finally, we evaluated Ral GTPase activity in vivo in the H2122 xenografts. Nude mice were inoculated with 5×10^6 cells H2122 cells s.c. at four sites per mice. Tumor size reached an average of 250 mm^3 in ten days, at which time mice were given a signal i.p. dose of RBC8 or BQU57 at various concentrations. Tumors were then collected 3 h after injection of RBC8 or BQU57. RalA and RalB activity in tumor samples were then measured using the RalBP1 pull-down assay kit (Millipore #14-415). Ras and RhoA activity in tumor samples were measured using the respective pull-down assay kits. All the activity assays used western blotting as the final readout. For quantification of the immunoblots, the bands on each blot were first normalized to their respective internal control (10 ng of recombinant Ral, Ras, or […] protein run in the last lane) the numbers were then compared across different blots, each of which represented one treatment condition. Mice bearing H2122 tumors (median size 250 mm^3) were given a single intraperitoneal dose of RBC8 (50 mg/kg) or BQU57 (10/20/50 mg/kg) and tumors collected 3 h post-dose.

RalB-GDP [3] = target: T3, RalB-GDP (Homo sapiens, UniProt P11234, Q72L); assay: Surface Plasma Resonance (SPR) binding, Biacore 3000; conditions: RalB immobilized on CM5 chip; PBS pH 7.4, 1 μM GDP, 2 mM MgCl2, 3% DMSO
T3 construct: made in house
T3 sequence (P11234 1-206 Q72L): T2 sequence (P11234 1-206) with Q72L
Method: (§4) Consequently, the binding of BQU57 to RalB-GDP was then determined using Isothermal Titration Calorimetry (ITC). ITC experiments were carried out using the MicroCal iTC200 system. Both protein and drug were prepared in 50 mM sodium phosphate, pH 7.6, 100 mM NaCl, and 1 mM MgCl2. Final DMSO concentration was adjusted to 1%. RalB-GDP protein (500 μM) were loaded into the syringe and titrated into drug (25 μM) or buffer alone as control. All experiments were carried out at 25° C. […] SPR experiments were carried out using the Biacore 3000 system. Running buffer: PBS, pH 7.4, 1 μM GDP, 2 mM MgCl2, 3% DMSO. Regeneration buffer: PBS, pH 7.4, 1 μM GDP, 2 mM Mg Cl2. RalB protein was immobilized on CM5 chip; samples of compound BQU57 in running buffer were injected at 30 μL/min for 60 s contact time followed by 5 minute regeneration.

RalA [4] = target: T1, RalA; assay: RalBP1 pull-down of Ral activity in H2122 xenograft tumors; assay type: in vivo; conditions: single i.p. dose, RBC8 50 mg/kg or BQU57 10/20/50 mg/kg, tumors collected 3 h post-dose
Method: as §3

RalB [5] = target: T2, RalB; assay: as above; assay type: in vivo; conditions: single i.p. dose, RBC8 50 mg/kg or BQU57 10/20/50 mg/kg, tumors collected 3 h post-dose
Method: as §3

[6] = test system: H2122 human lung cancer cells; assay: Cellular uptake, LC/MS-MS of cell lysates; assay type: in vitro ADME; conditions: 10 μM, 1-60 min
Method: To quantitate how well the test compounds get into cells, H2122 human lung cancer cells were seeded at 3×10^5 cells per well in 6-well plates and let sit for 16 h. Compounds (10 μM) were individually dosed in triplicate; cells were then collected into 500 μl ice-cold ACN:MeOH:H2O (1:1:1) at different time points (1, 5, 15, 30 and 60 min). Drug concentrations in cell lysates were then determined using LC/MS-MS methods as described with respect to the pharmacokinetic and pharmacodynamic studies in mice, described in detail in Example 5, below.

physchem = assay type: physicochemical; conditions: aqueous buffer
RalB-GDP [7] = target: T3, RalB-GDP; assay: Isothermal Titration Calorimetry (ITC); assay type: binding; conditions: 25° C.; 50 mM sodium phosphate pH 7.6; 1% DMSO
Method: as §4

Compound | inhibition of RalA activity (RalA [1]) | inhibition of RalB activity (RalB [2]) | inhibition of Ras activity in tumors (Ras) | Kd (RalB-GDP [3]) [µM] | inhibition of RalA activity in tumors (RalA [4]) | inhibition of RalB activity in tumors (RalB [5]) | cellular uptake [6] | solubility (physchem) [µM] | Kd (RalB-GDP [7]) [µM]
Cc1nn(C)c2c1C(c1ccc(C(F)(F)F)cc1)C(C#N)=C(N)O2 (centres unmarked) [BQU57, 6-amino-1,3-dimethyl-4-(4-(trifluoromethyl)phenyl)-1,4-dihydropyrano[2,3-c]pyrazole-5-carbonitrile] | inhibited | inhibited | no significant inhibition | 4.7 ± 1.5 | significant inhibition | significant inhibition | readily get into cells | ~75 (≈ 25.1 µg/mL) | 7.7 ± 0.6
COc1ccc(OC)c(C2C(C#N)=C(N)Oc3n[nH]c(-c4ccc5ccccc5c4)c32)c1 (centres unmarked) [RBC8] | inhibited | inhibited | – | – | significant inhibition | significant inhibition | readily get into cells | – | –
